Where two headings read alike, the source gives them in different places.
Target: T1, BRM (Homo sapiens, UniProt P51531)
T1 construct: In-Cell Western Screen of BRM Degradation in SW1573 Cells; endogenous in cells; host or cells: SW1573
Assay: In-cell Western screen of BRM degradation in SW1573 cells (Dmax and DC50)
Format: cell-based
Outline: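 SW1573, overnight cpd exposure (18-20 h), 0.1% DMSO final. PFA fix, 0.5% Triton permeabilization, block; IR secondaries at 800/680 nm. Odyssey read → Dmax, DC50.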

[1] = BRM degradation, SW1573 cells, Table 2D, read-out: *DC50
[2] = SW1573, % degraded, when tested at the top concentration of between 0.3 and 10 μM, read-out: BRM Dmax (%)
[3] = target protein degradation, read-out: BRM DC50
[4] = BRM degradation, SW1573 cells, read-out: DC50
[5] = BRM degradation, SW1573 cells, tested at the top concentration of between 0.3 and 10 μM, read-out: Dmax (%) (% degraded)

T1 sequence (P51531 whole entry): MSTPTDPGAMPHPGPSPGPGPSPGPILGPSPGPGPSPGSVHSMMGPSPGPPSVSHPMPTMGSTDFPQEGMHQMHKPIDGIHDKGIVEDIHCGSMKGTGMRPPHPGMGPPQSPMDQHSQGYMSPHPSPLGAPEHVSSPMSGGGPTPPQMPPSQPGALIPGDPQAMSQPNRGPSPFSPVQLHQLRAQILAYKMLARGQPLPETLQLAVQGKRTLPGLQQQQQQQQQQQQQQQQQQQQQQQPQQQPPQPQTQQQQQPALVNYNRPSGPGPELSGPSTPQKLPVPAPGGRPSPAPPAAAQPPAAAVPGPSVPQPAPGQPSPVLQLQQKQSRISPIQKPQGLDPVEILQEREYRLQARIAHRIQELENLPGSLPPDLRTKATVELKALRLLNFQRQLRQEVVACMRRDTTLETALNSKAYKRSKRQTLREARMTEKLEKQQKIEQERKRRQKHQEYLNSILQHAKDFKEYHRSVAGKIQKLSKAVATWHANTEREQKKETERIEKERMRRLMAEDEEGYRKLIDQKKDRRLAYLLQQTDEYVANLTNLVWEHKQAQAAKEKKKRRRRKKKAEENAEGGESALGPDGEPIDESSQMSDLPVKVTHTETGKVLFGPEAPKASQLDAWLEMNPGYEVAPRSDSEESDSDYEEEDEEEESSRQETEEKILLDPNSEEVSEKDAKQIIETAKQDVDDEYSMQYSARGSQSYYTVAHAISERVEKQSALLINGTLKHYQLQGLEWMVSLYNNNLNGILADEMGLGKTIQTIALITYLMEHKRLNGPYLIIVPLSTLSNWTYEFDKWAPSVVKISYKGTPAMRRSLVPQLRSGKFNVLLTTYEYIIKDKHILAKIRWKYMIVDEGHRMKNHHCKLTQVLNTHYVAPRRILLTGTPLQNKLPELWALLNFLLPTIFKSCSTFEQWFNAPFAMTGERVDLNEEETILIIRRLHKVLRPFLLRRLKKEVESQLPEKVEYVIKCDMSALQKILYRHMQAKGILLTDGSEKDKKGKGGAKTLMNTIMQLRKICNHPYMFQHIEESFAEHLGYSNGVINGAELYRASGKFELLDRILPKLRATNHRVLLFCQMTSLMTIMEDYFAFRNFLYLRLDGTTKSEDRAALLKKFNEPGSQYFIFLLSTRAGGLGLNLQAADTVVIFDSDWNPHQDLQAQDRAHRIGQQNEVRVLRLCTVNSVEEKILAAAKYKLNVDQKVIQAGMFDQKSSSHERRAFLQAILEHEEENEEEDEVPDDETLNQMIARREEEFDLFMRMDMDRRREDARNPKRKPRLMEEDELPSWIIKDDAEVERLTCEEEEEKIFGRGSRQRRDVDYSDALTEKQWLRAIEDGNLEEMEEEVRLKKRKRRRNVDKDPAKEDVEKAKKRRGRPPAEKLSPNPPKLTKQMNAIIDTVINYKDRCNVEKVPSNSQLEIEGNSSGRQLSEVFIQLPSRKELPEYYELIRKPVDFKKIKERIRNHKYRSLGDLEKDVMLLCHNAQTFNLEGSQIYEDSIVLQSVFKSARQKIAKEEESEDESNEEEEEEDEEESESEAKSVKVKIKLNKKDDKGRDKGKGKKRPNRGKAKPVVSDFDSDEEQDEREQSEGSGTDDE

## Cc1ncsc1-c1ccc([C@H](C)NC(=O)[C@@H]2C[C@@H](O)CN2C(=O)[C@H](c2cc(OCCC3CCN(C[C@H]4C[C@H](Oc5cc(N6C7CCC6CN(c6cc(-c8ccccc8O)nnc6N)C7)ccn5)C4)CC3)no2)C(C)C)c(F)c1F [compound 587, (2S,4R)-1-((2S)-2-(3-(2-(1-(((1r,3S)-3-((4-(3-(3-amino-6-(2-hydroxyphenyl)pyridazin-4-yl)-3,8-diazabicyclo[3.2.1]octan-8-yl)pyridin-2-yl)oxy)cyclobutyl)methyl)piperidin-4-yl)ethoxy)isoxazol-5-yl)-3-methylbutanoyl)-N-((S)-1-(2,3-difluoro-4-(4-methylthiazol-5-yl)phenyl)ethyl)-4-hydroxypyrrolidine-2-carboxamide]
[1]
  DC50: > 30 nM

## Cc1ncsc1-c1ccc([C@H](C)NC(=O)[C@@H]2C[C@@H](O)CN2C(=O)[C@@H](c2cc(OCC[C@H]3CC[C@H](O[C@H]4C[C@H](Oc5cc(N6C7CCC6CN(c6cc(-c8ccccc8O)nnc6N)C7)ccn5)C4)CC3)no2)C(C)C)cc1 [compound 488, (2S,4R)-1-((2R)-2-(3-(2-((1R,4R)-4-((1r,3R)-3-((4-(3-(3-amino-6-(2-hydroxyphenyl)pyridazin-4-yl)-3,8-diazabicyclo[3.2.1]octan-8-yl)pyridin-2-yl)oxy)cyclobutoxy)cyclohexyl)ethoxy)isoxazol-5-yl)-3-methylbutanoyl)-4-hydroxy-N-((S)-1-(4-(4-methylthiazol-5-yl)phenyl)ethyl)pyrrolidine-2-carboxamide]
[2]
  Dmax: > 75%
[3]
  DC50: < 2.5 nM

## Cc1ncsc1-c1ccc([C@H](C)NC(=O)[C@@H]2C[C@@H](O)CN2C(=O)[C@H](c2cc(OCCCN3CCN(CCCOc4cc(N5C6CCC5CN(c5cc(-c7ccccc7O)nnc5N)C6)ccn4)CC3)no2)C(C)C)cc1 [compound 384, (2S,4R)-1-((2S)-2-(3-(3-(4-(3-((4-(3-(3-amino-6-(2-hydroxyphenyl)pyridazin-4-yl)-3,8-diazabicyclo[3.2.1]octan-8-yl)pyridin-2-yl)oxy)propyl)piperazin-1-yl)propoxy)isoxazol-5-yl)-3-methylbutanoyl)-4-hydroxy-N-((S)-1-(4-(4-methylthiazol-5-yl)phenyl)ethyl)pyrrolidine-2-carboxamide]
[2]
  Dmax: > 75%
[3]
  DC50: 2.5 to 10 nM

## Cc1cc([C@H](C(=O)N2C[C@H](O)C[C@H]2C(=O)N[C@@H](C)c2ccc(-c3scnc3C)cc2)[C@H](C)COCCCCn2cc(-c3cc(-c4ccccc4O)nnc3N)cn2)on1 [compound 558, (2S,4R)-1-((2R,3S)-4-(4-(4-(3-amino-6-(2-hydroxyphenyl)pyridazin-4-yl)-1H-pyrazol-1-yl)butoxy)-3-methyl-2-(3-methylisoxazol-5-yl)butanoyl)-4-hydroxy-N-((S)-1-(4-(4-methylthiazol-5-yl)phenyl)ethyl) pyrrolidine-2-carboxamide]
[1]
  DC50: > 30 nM

## Cc1ncsc1-c1ccc([C@H](C)NC(=O)[C@@H]2C[C@@H](O)CN2C(=O)[C@H](c2cc(OCCCC#Cc3ccc(O[C@H]4C[C@H](Oc5cc(N6C7CCC6CN(c6cc(-c8ccccc8O)nnc6N)C7)ccn5)C4)cn3)no2)C(C)C)cc1 [compound 249, (2S,4R)-1-((2S)-2-(3-((5-(5-((1r,3r)-3-((4-(3-(3-amino-6-(2-hydroxyphenyl)pyridazin-4-yl)-3,8-diazabicyclo[3.2.1]octan-8-yl)pyridin-2-yl)oxy)cyclobutoxy)pyridin-2-yl)pent-4-yn-1-yl)oxy)isoxazol-5-yl)-3-methylbutanoyl)-4-hydroxy-N-((S)-1-(4-(4-methylthiazol-5-yl)phenyl)ethyl)pyrrolidine-2-carboxamide]
[4]
  DC50: > 30 nM
[5]
  Dmax: > 75%

## CC(C)[C@H](C(=O)N1C[C@H](O)C[C@H]1C(=O)NCc1ccc(C2(F)CC2)cc1)c1cc(OCCN2CCC(O[C@H]3C[C@H](Oc4cc(N5C6CCC5CN(c5cc(-c7ccccc7O)nnc5N)C6)ccn4)C3)CC2)no1 [compound 418, (2S,4R)-1-((2S)-2-(3-(2-(4-((1r,3S)-3-((4-(3-(3-amino-6-(2-hydroxyphenyl)pyridazin-4-yl)-3,8-diazabicyclo[3.2.1]octan-8-yl)pyridin-2-yl)oxy)cyclobutoxy)piperidin-1-yl)ethoxy)isoxazol-5-yl)-3-methylbutanoyl)-N-(4-(1-fluorocyclopropyl)benzyl)-4-hydroxypyrrolidine-2-carboxamide]
Degradation of BRM, read-out: BRM DC50
  DC50: > 30 nM

## Cc1ncsc1-c1ccc([C@@H](CCCC(=O)O)NC(=O)[C@@H]2C[C@@H](O)CN2C(=O)C(c2cc(OCCN3CCC(O[C@H]4C[C@H](Oc5cc(N6C7CCC6CN(c6cc(-c8ccccc8O)nnc6N)C7)ccn5)C4)CC3)no2)C(C)C)cc1 (stereo partly drawn) [compound 686, (5R)-5-((2S,4R)-1-(2-(3-(2-(4-((1r,3r)-3-((4-(3-(3-amino-6-(2-hydroxyphenyl)pyridazin-4-yl)-3,8-diazabicyclo[3.2.1]octan-8-yl)pyridin-2-yl)oxy)cyclobutoxy)piperidin-1-yl)ethoxy)isoxazol-5-yl)-3-methylbutanoyl)-4-hydroxypyrrolidine-2-carboxamido)-5-(4-(4-methylthiazol-5-yl)phenyl)pentanoic acid]
[4]
  DC50: > 30 nM

## Cc1ncsc1-c1ccc([C@H](C)NC(=O)[C@@H]2C[C@@H](O)CN2C(=O)[C@H](c2cc(OCCC3CCN(C[C@H]4C[C@H](N5CCC(C(C)n6cc(-c7cc(-c8ccccc8O)nnc7N)cn6)CC5)C4)CC3)no2)C(C)C)cc1 (stereo partly drawn) [compound 619, (2S,4R)-1-((2S)-2-(3-(2-(1-(((1r,3S)-3-(4-(1-(4-(3-amino-6-(2-hydroxyphenyl)pyridazin-4-yl)-1H-pyrazol-1-yl)ethyl)piperidin-1-yl)cyclobutyl)methyl)piperidin-4-yl)ethoxy)isoxazol-5-yl)-3-methylbutanoyl)-4-hydroxy-N-((S)-1-(4-(4-methylthiazol-5-yl)phenyl)ethyl)pyrrolidine-2-carboxamide]
[1]
  DC50: > 30 nM

## Cc1ncsc1-c1ccc([C@H](C)NC(=O)[C@@H]2C[C@@H](O)CN2C(=O)[C@H](c2cc(OCCOc3ccc(C(C)n4cc(-c5cc(-c6ccccc6O)nnc5N)cn4)cn3)no2)C(C)C)cc1 (stereo partly drawn) [compound 163, (2S,4R)-1-((2S)-2-(3-(2-((5-(1-(4-(3-amino-6-(2-hydroxyphenyl)pyridazin-4-yl)-1H-pyrazol-1-yl)ethyl)pyridin-2-yl)oxy)ethoxy)isoxazol-5-yl)-3-methylbutanoyl)-4-hydroxy-N-((S)-1-(4-(4-methylthiazol-5-yl)phenyl)ethyl)pyrrolidine-2-carboxamide]
[4]
  DC50: < 2.5 nM
[5]
  Dmax: > 75%

## Cc1ncsc1-c1ccc([C@H](C)NC(=O)[C@@H]2C[C@@H](O)CN2C(=O)[C@H](c2cc(N3CCC(CN4CCC(O[C@H]5C[C@H](Oc6cc(N7C8CCC7CN(c7cc(-c9ccccc9O)nnc7N)C8)ccn6)C5)CC4)CC3)no2)C(C)C)cc1F [compound 651, (2S,4R)-1-((2S)-2-(3-(4-((4-((1r,3r)-3-((4-(3-(3-amino-6-(2-hydroxyphenyl)pyridazin-4-yl)-3,8-diazabicyclo[3.2.1]octan-8-yl)pyridin-2-yl)oxy)cyclobutoxy)piperidin-1-yl)methyl)piperidin-1-yl)isoxazol-5-yl)-3-methylbutanoyl)-N-((S)-1-(3-fluoro-4-(4-methylthiazol-5-yl)phenyl)ethyl)-4-hydroxypyrrolidine-2-carboxamide]
[4]
  DC50: > 30 nM

## Cc1ncsc1-c1ncc([C@H](C)NC(=O)[C@@H]2C[C@@H](O)CN2C(=O)C(c2cc(OCCN3CCC(O[C@H]4C[C@H](Oc5cc(N6C7CCC6CN(c6cc(-c8ccccc8O)nnc6N)C7)ccn5)C4)CC3)no2)C(C)C)cc1F (stereo partly drawn) [compound 500, (2S,4R)-1-(2-(3-(2-(4-((1r,3r)-3-((4-(3-(3-amino-6-(2-hydroxyphenyl)pyridazin-4-yl)-3,8-diazabicyclo[3.2.1]octan-8-yl)pyridin-2-yl)oxy)cyclobutoxy)piperidin-1-yl)ethoxy)isoxazol-5-yl)-3-methylbutanoyl)-N-((S)-1-(5-fluoro-6-(4-methylthiazol-5-yl)pyridin-3-yl)ethyl)-4-hydroxypyrrolidine-2-carboxamide]
BRM degradation, read-out: BRM DC50
  DC50: > 30 nM

## Cc1ncsc1-c1ccc(C2(NC(=O)[C@@H]3C[C@@H](O)CN3C(=O)[C@@H](c3cc(OCCN4CCN(CCOc5cc(N6C7CCC6CN(c6cc(-c8ccccc8O)nnc6N)C7)ccn5)CC4)no3)C(C)C)CN(C)C2)cc1 [compound 126, (2S,4R)-1-((2R)-2-(3-(2-(4-(2-((4-(3-(3-amino-6-(2-hydroxyphenyl)pyridazin-4-yl)-3,8-diazabicyclo[3.2.1]octan-8-yl)pyridin-2-yl)oxy)ethyl)piperazin-1-yl)ethoxy)isoxazol-5-yl)-3-methylbutanoyl)-4-hydroxy-N-(1-methyl-3-(4-(4-methylthiazol-5-yl)phenyl)azetidin-3-yl)pyrrolidine-2-carboxamide]
[4]
  DC50: 2.5 to 10 nM
BRM degradation, SW1573 cells, when tested at the top concentration of between 0.3 and 10 μM, read-out: Dmax (%) (% degraded)
  Dmax: > 75%

## Cc1ncsc1-c1ccc([C@H](C)NC(=O)[C@@H]2C[C@@H](O)CN2C(=O)[C@@H](c2onc(OCCN3CCC(O[C@H]4C[C@H](Oc5cc(N6C7CCC6CN(c6cc(-c8ccccc8O)nnc6N)C7)ccn5)C4)CC3)c2F)C(C)C)cn1 [compound 270, (2S,4R)-1-((2R)-2-(3-(2-(4-((1r,3R)-3-((4-(3-(3-amino-6-(2-hydroxyphenyl)pyridazin-4-yl)-3,8-diazabicyclo[3.2.1]octan-8-yl)pyridin-2-yl)oxy)cyclobutoxy)piperidin-1-yl)ethoxy)-4-fluoroisoxazol-5-yl)-3-methylbutanoyl)-4-hydroxy-N-((S)-1-(6-(4-methylthiazol-5-yl)pyridin-3-yl)ethyl)pyrrolidine-2-carboxamide]
[4]
  DC50: < 2.5 nM
[5]
  Dmax: > 75%
